Assays:
[1] = tested on: contextually elicited conditioned gaping (anticipatory nausea) in rats; assay: Anticipatory nausea: contextually elicited conditioned gaping in rats; assay type: in vivo, male Sprague-Dawley rats; details: for Contextually elicited conditioned gaping compared to VEH controls: 45 min before test
From the text: Animal procedures complied with the Canadian Council on Animal Care, and the protocols were approved by the Institutional Animal Care Committee at University of Guelph. Animal studies are reported in compliance with the ARRIVE guidelines (Kilkenny et al., 2010; McGrath and Lilley, 2015). A total of 200 näive male Sprague-Dawley rats, obtained from Charles River Laboratories (St Constant, Quebec), were used for all in vivo studies. Rats were individually housed (for acute nausea studies) or pair-housed [for anticipatory nausea and light-dark emergence studies] in home cages made of opaque white plastic (48×26×20 cm), containing bed-o-cob bedding from Harlan Laboratories, Inc. (Mississauga, Ontario), a brown paper towel, and Crinkl'Nest™ from The Andersons, Inc. (Maumee, Ohio). Additionally, in the home cage, rats were provided with a soft white paper container that was 14 cm long and 12 cm in diameter. All rats were subjected to an ambient temperature of 21° C. and a 12/12 h light-dark schedule (lights off at 07:00 h) and maintained on food (Highland Rat Chow [8640]) and water ad libitum. For the acute and anticipatory nausea studies, their body weights ranged from 263 to 329 g on the day of conditioning. For the light-dark emergence studies, their body weights ranged from 320 to 387 g on the day of test.
For in vivo experiment 2, contextually elicited conditioned gaping (a model of anticipatory nausea) was measured using a distinctive conditioning chamber made of opaque black Plexiglass (22.5×26×20 cm) with an opaque lid that sat on a table with a clear glass top. A mirror beneath the chamber at a 45° angle facilitated viewing of the ventral surface of the rat to observe orofacial responses. The conditioning chamber was in a dark room next to a 25 W light source. A video camera that was fire-wired into a computer was focused on the mirror to record each rat's orofacial reactions during the 5 min test trial. The video tapes were later scored using ‘The Observer’ software. To assess activity, an activity chamber made of white Plexiglas (60×25×25 cm) was used, illuminated by a red light found in a different room that the contextual chamber was used to create a different context from the AN chamber. The activity of each rat was captured by video camera and sent to the Ethovision software program (Noldus, Inc., NL) to measure distance (cm) travelled.
To compare the potential of HU-580 and CBDA to reduce anticipatory nausea, the contextually elicited conditioned gaping paradigm was used (e.g. Limebeer et al., 2010; Rock et al., 2014). Rats underwent four conditioning trials during which the distinctive context was paired with 127 mg·kg^−1 LiCl. On each trial, rats were injected with LiCl and then immediately placed in the conditioning chamber for 30 min. This procedure was repeated four times with a 48 h interval between conditioning trials. For the test trial, rats were randomly assigned to one of five treatment groups (n=6 per group): VEH, 0.1 μg·kg^−1 CBDA, 0.1 μg·kg^−1 HU-580, 0.01 μg·kg^−1 CBDA, […] HU-580. Pretreatments were injected 45 min before the rats were given an saline injection (20 mL·kg^−1 i.p.) and individually placed in the conditioning (contextual) chamber for 5 min, and orofacial responses were video recorded. To investigate the mechanism of action of HU-580, two additional groups of rats were administered 0.1 mg·kg^−1 WAY-VEH (n=8), 0.1 mg·kg^−1 WAY-0.1 μg·kg^−1 HU-580 (n=8). VEH or WAY100635 were administered 15 min before […] or VEH. The video tapes from the test trial were scored by an observer blind to the experimental conditions using ‘The Observer’ for the behaviors of gaping (large openings of the mouth and jaw, with lower incisors exposed). […]

[2] = tested on: locomotor activity of rats; assay: Locomotor activity test after the anticipatory nausea test; assay type: in vivo, male Sprague-Dawley rats; details: 0.01 or 0.1 μg·kg−1 i.p.; 15 min test; ANOVA F(6, 39)=0.9, P>0.05
Procedure: For in vivo experiment 2, contextually elicited conditioned gaping (a model of anticipatory nausea) was measured using a distinctive conditioning chamber made of opaque black Plexiglass (22.5×26×20 cm) with an opaque lid that sat on a table with a clear glass top. A mirror beneath the chamber at a 45° angle facilitated viewing of the ventral surface of the rat to observe orofacial responses. The conditioning chamber was in a dark room next to a 25 W light source. A video camera that was fire-wired into a computer was focused on the mirror to record each rat's orofacial reactions during the 5 min test trial. The video tapes were later scored using ‘The Observer’ software. […]
To compare the potential of HU-580 and CBDA to reduce anticipatory nausea, the contextually elicited conditioned gaping paradigm was used (e.g. Limebeer et al., 2010; Rock et al., 2014). […] Pretreatments were injected 45 min before the rats were given an saline injection (20 mL·kg^−1 i.p.) and individually placed in the conditioning (contextual) chamber for 5 min, and orofacial responses were video recorded. […] The video tapes from the test trial were scored by an observer blind to the experimental conditions using ‘The Observer’ for the behaviors of gaping (large openings of the mouth and jaw, with lower incisors exposed). […]

C=C(C)[C@@H]1CCC(C)=C[C@H]1c1c(O)cc(CCCCC)c(C(=O)O)c1O [CBDA, Cannabidiolic acid]
Contextually elicited conditioned gaping compared to VEH controls ([1]; 0.01 μg·kg−1 i.p.): but not CBDA, suppressed contextually elicited conditioned gaping
Contextually elicited conditioned gaping compared to VEH controls ([1]; 0.1 μg·kg−1 i.p., P<0.05): reduced conditioned gaping
Distance moved in locomotor activity test [2]: no significant effect on distance moved

C=C(C)[C@@H]1CCC(C)=C[C@H]1c1c(O)cc(CCCCC)c(C(=O)OC)c1O [HU-580, Cannabidiolic Acid Methyl Ester]
Contextually elicited conditioned gaping compared to VEH controls ([1]; 0.01 μg·kg−1 i.p.): gaping significantly less than VEH controls
Suppressive effect on anticipatory nausea after 5-HT1A antagonist pretreatment ([1]; 0.1 μg·kg−1 HU-580 i.p., WAY100635 0.1 mg·kg−1 15 min before): blocked by pretreatment with WAY100635
Contextually elicited conditioned gaping compared to VEH controls ([1]; 0.1 μg·kg−1 i.p., P<0.05): reduced conditioned gaping
Dose as low as which contextually elicited conditioned gaping is suppressed ([1]; i.p., rats): 0.01 µg/kg
Distance moved in locomotor activity test [2]: no significant effect on distance moved
